Data reported in patent US20210101881A1 (Ancureall Pharmaceutical (Shanghai) Co., Ltd., priority 2018, published 2021).

Experiments:
[1] = test system: NCI-N87; assay: Growth inhibition of CDK9-positive tumor cell line in vitro; format: cell-based; conditions: Human stomach cancer, read-out: Inhibitory activity (IC50) on growth in vitro, NCI-N87
Method: (§1) Measurement of the Inhibitory Activity of the Present Compound on the Growth of Various Types of CDK9-Positive Tumor Cell Lines In Vitro
(§2) The inventors selected representative CDK9-positive tumor cell lines for further determination of the compound activity. All cell lines used came from ATCC, JCRB, DSMZ and Chinese Academy of Sciences Cell Bank (ZK). Cell culture condition and method were based on the requirements of each cell line. No more than 3 passages were carried out in each culture in vitro. Monoclonal purification and STR identification of the cell line were conducted if necessary.

[2] = test system: NCI-H1581; assay: as above; format: cell-based; conditions: Human lung cancer, read-out: Inhibitory activity (IC50) on growth in vitro, NCI-H1581
Method: as §1, §2

[3] = test system: B-CPAP; assay: as above; format: cell-based; conditions: BCPAP, Human thyroid cancer, read-out: Inhibitory activity (IC50) on growth in vitro, B-CPAP
Method: as §1, §2

[4] = test system: PC-9; assay: as above; format: cell-based; conditions: Human lung cancer, read-out: Inhibitory activity (IC50) on growth in vitro, PC-9
Method: as §1, §2

[5] = test system: Pfeiffer; assay: as above; format: cell-based; conditions: Human B lymphocyte tumor, read-out: Inhibitory activity (IC50) on growth in vitro, Pfeiffer
Method: as §1, §2

[6] = test system: NCI-H460; assay: as above; format: cell-based; conditions: Human lung cancer, read-out: Inhibitory activity (IC50) on growth in vitro, NCI-H460
Method: as §1, §2

[7] = test system: AGS; assay: as above; format: cell-based; conditions: Human stomach cancer, read-out: Inhibitory activity (IC50) on growth in vitro, AGS
Method: as §1, §2

[8] = test system: A375; assay: as above; format: cell-based; conditions: A-375, Human melanoma, read-out: Inhibitory activity (IC50) on growth in vitro, A375
Method: as §1, §2

[9] = test system: TPC-1; assay: as above; format: cell-based; conditions: TPC1, Human thyroid cancer, read-out: Inhibitory activity (IC50) on growth in vitro, TPC-1
Method: as §1, §2

[10] = test system: CAL-120; assay: as above; format: cell-based; conditions: Human breast cancer, read-out: Inhibitory activity (IC50) on growth in vitro, CAL-120
Method: as §1, §2

[11] = test system: NCI-H1703; assay: as above; format: cell-based; conditions: Human lung cancer, read-out: Inhibitory activity (IC50) on growth in vitro, NCI-H1703
Method: as §1, §2

[12] = test system: DU-145; assay: as above; format: cell-based; conditions: Human prostate cancer, read-out: Inhibitory activity (IC50) on growth in vitro, DU-145
Method: as §1, §2

[13] = test system: HuCCT-1; assay: as above; format: cell-based; conditions: Human cholangiocarcinoma, read-out: Inhibitory activity (IC50) on growth in vitro, HuCCT-1
Method: as §1, §2

[14] = test system: MCF7; assay: as above; format: cell-based; conditions: Human breast cancer, read-out: Inhibitory activity (IC50) on growth in vitro, MCF7
Method: as §1, §2

[15] = test system: Sk-ov-3; assay: as above; format: cell-based; conditions: Human ovarian cancer, read-out: Inhibitory activity (IC50) on growth in vitro, Sk-ov-3
Method: as §1, §2

[16] = test system: SK-MEL-28; assay: as above; format: cell-based; conditions: Human melanoma, read-out: Inhibitory activity (IC50) on growth in vitro, SK-MEL-28
Method: as §1, §2

[17] = test system: HCT-116; assay: as above; format: cell-based; conditions: Human intestinal cancer, read-out: Inhibitory activity (IC50) on growth in vitro, HCT-116
Method: as §1, §2

[18] = test system: KHM-5M; assay: as above; format: cell-based; conditions: read-out: Inhibitory activity (IC50) on growth in vitro, Human thyroid cancer
Method: as §1, §2

[19] = test system: HO8910PM; assay: as above; format: cell-based; conditions: Human ovarian cancer, read-out: Inhibitory activity (IC50) on growth in vitro, HO8910PM
Method: as §1, §2

[20] = test system: Colo205; assay: as above; format: cell-based; conditions: COLO 205, Human intestinal cancer, read-out: Inhibitory activity (IC50) on growth in vitro, Colo205
Method: as §1, §2

[21] = test system: Kasumi-1; assay: as above; format: cell-based; conditions: Human acute myeloid leukemia, read-out: Inhibitory activity (IC50) on growth in vitro, Kasumi-1
Method: as §1, §2

[22] = test system: BT-474; assay: as above; format: cell-based; conditions: Human breast cancer, read-out: Inhibitory activity (IC50) on growth in vitro, BT-474
Method: as §1, §2

[23] = test system: NCI-H1781; assay: as above; format: cell-based; conditions: Human lung cancer, read-out: Inhibitory activity (IC50) on growth in vitro, NCI-H1781
Method: as §1, §2

[24] = test system: NCI-H358; assay: as above; format: cell-based; conditions: Human lung cancer, read-out: Inhibitory activity (IC50) on growth in vitro, NCI-H358
Method: as §1, §2

[25] = target: T1, CDK9/CyclinK kinase (Homo sapiens, UniProt P50750); assay: CDK9 protein kinase activity, ADP-Glo CDK9/CyclinK kinase detection kit; format: biochemical; conditions: read-out: IC50 of the compound for inhibiting CDK9 protein kinase activity, CDK9/CyclinK kinase
T1 construct: purchased Promega Corporation V4105
T1 sequence (P50750 whole entry): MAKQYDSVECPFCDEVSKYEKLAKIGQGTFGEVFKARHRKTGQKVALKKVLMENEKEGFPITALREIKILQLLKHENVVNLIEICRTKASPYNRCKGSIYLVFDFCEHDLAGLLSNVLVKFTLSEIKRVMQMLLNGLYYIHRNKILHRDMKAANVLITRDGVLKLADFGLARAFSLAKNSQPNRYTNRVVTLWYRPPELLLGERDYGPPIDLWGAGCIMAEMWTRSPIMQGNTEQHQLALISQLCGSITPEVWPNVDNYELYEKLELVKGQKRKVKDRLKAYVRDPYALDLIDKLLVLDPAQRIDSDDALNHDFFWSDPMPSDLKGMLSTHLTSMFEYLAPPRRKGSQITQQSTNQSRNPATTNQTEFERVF
T1 sequence (O75909 whole entry partner): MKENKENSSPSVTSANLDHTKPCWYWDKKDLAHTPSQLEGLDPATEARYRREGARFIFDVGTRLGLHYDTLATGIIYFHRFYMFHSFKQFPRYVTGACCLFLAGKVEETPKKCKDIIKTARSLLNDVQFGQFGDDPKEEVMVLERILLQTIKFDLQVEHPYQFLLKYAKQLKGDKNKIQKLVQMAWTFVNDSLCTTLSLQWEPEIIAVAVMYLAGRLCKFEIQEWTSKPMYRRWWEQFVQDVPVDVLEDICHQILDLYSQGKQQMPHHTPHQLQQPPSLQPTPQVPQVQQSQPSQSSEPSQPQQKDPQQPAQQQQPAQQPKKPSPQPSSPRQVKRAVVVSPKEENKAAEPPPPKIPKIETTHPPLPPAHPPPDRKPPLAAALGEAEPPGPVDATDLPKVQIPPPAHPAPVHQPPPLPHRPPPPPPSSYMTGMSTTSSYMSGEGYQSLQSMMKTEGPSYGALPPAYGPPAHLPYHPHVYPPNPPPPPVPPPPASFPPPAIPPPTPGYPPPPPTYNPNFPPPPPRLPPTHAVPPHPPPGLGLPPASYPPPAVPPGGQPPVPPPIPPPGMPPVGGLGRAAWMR
Method: Measurement of CDK9 Protein Kinase Activity
The present compound was dissolved in DMSO (Sigma Aldrich), and the initial concentration of the compound was 1000 nM. A two-fold serial dilution was carried out. The specific operation of CDK9 kinase activity determination was carried out according to the ADP-Go™ CDK9/CyclinK kinase detection experimental procedure. […] Each test sample was tested in duplicate, and the test was repeated once. The inhibitory activity (IC50) of the compound on CDK9 protein kinase was calculated from the dose-inhibition curve of the compound.

[26] = test system: NCI-H1993; assay: Growth inhibition of CDK9-positive tumor cell line in vitro; format: cell-based; conditions: Human lung cancer, read-out: Inhibitory activity (IC50) on growth in vitro, NCI-H1993
Method: as §1, §2

[27] = test system: MDA-MB-436; assay: as above; format: cell-based; conditions: Human breast cancer, read-out: Inhibitory activity (IC50) on growth in vitro, MDA-MB-436
Method: as §1, §2

SMILES | IC50 [1] [nM] | IC50 [2] [nM] | IC50 [3] [nM] | IC50 [4] [nM] | IC50 [5] [nM] | IC50 [6] [nM] | IC50 [7] [nM] | IC50 [8] [nM] | IC50 [9] [nM] | IC50 [10] [nM] | IC50 [11] [nM] | IC50 [12] [nM] | IC50 [13] [nM] | IC50 [14] [nM] | IC50 [15] [nM] | IC50 [16] [nM] | IC50 [17] [nM] | IC50 [18] [nM] | IC50 [19] [nM] | IC50 [20] [nM] | further results
Cc1cc(Nc2ncc(Cl)c(-n3cc(C(N)=O)c4ccccc43)n2)ccc1N1CCN(C(C)C)CC1 [Compound 60, 1-{5-chloro-2-[4-(4-isopropyl-piperazin-1-yl)-3-methyl-phenylamino]-pyrimidin-4-yl}-1H-indole-3-carboxamide] | 100 to 1000 | 10 to 100 | 10 to 100 | 100 to 1000 | 10 to 100 | 100 to 1000 | 100 to 1000 | 100 to 1000 | 10 to 100 | 1 to 10 | 10 to 100 | 10 to 100 | 100 to 1000 | 10 to 100 | 10 to 100 | 100 to 1000 | 100 to 1000 | 10 to 100 | 10 to 100 | 100 to 1000 | IC50 [21]: 1 to 10 nM; IC50 [22]: 10 to 100 nM; IC50 [23]: 10 to 100 nM; IC50 [24]: 100 to 1000 nM; IC50 [25]: 1 to 10 nM
CC(C)N1CCN(c2cccc(Nc3ncc(F)c(-n4cc(C(N)=O)c5ccccc54)n3)c2)CC1 [Compound 144, 1-{5-fluoro-2-[3-(4-isopropyl-piperazin-1-yl)-phenylamino]-pyrimidin-4-yl}-1H-indole-3-carboxamide] | 1 to 10 | < 1 | < 1 | 1 to 10 | < 1 | 1 to 10 | 1 to 10 | 1 to 10 | < 1 | < 1 | < 1 | < 1 | 1 to 10 | < 1 | < 1 | 1 to 10 | 1 to 10 | < 1 | < 1 | 1 to 10 | IC50 [21]: < 1 nM; IC50 [26]: 1 to 10 nM; IC50 [22]: < 1 nM; IC50 [23]: < 1 nM; IC50 [24]: 1 to 10 nM; IC50 [27]: < 1 nM
CCN1CCN(c2cccc(Nc3ncc(F)c(-n4cc(C(N)=O)c5cc(OC)ccc54)n3)c2)CC1 [Compound 152, 1-{2-[3-(4-ethyl-piperazin-1-yl)-phenylamino]-5-fluoro-pyrimidin-4-yl}-5-methoxy-1H-indole-3-carboxamide] | 1 to 10 | < 1 | 1 to 10 | 1 to 10 | < 1 | 1 to 10 | 1 to 10 | 1 to 10 | 1 to 10 | < 1 | < 1 | 1 to 10 | 1 to 10 | < 1 | < 1 | 1 to 10 | 1 to 10 | 1 to 10 | < 1 | 1 to 10 | IC50 [21]: 1 to 10 nM; IC50 [26]: 1 to 10 nM; IC50 [22]: < 1 nM; IC50 [23]: < 1 nM; IC50 [24]: 1 to 10 nM; IC50 [27]: < 1 nM; IC50 [25]: < 1 nM
NC(=O)c1cn(-c2nc(Nc3cccc(N4CCN(C5CCOCC5)CC4)c3)ncc2F)c2ccccc12 [Compound 140, 1-(5-fluoro-2-{3-[4-(tetrahydro-pyran-4-yl)-piperazin-1-yl]-phenylamino}-pyrimidin-4-yl)-1H-indole-3-carboxamide] | 1 to 10 | < 1 | < 1 | 1 to 10 | < 1 | 1 to 10 | 1 to 10 | 1 to 10 | < 1 | < 1 | < 1 | < 1 | 1 to 10 | < 1 | < 1 | 1 to 10 | 1 to 10 | < 1 | < 1 | 1 to 10 | IC50 [21]: 1 to 10 nM; IC50 [26]: 1 to 10 nM; IC50 [22]: < 1 nM; IC50 [23]: < 1 nM; IC50 [24]: 1 to 10 nM; IC50 [27]: < 1 nM
